Source: patent US20040006783A1, “Compositions and methods for modulating Rop GTPase activity in plants” (THE REGENTS THE UNIVERSITY OF CALIFORINIA, priority 2002, published 2004)
Where two headings read alike, the source gives them in different places.

Assays:
[1] = test system: GUS activity in ropgap4-1 seedlings; test: GUS specific activity in ropgap4-1 seedlings; format: in vivo, Arabidopsis thaliana
[2] = test system: ADH; test: ADH specific activity in cell extracts of treated seedlings
[3] = test system: WT seedlings; settings: for Viable Seedlings 48 h after Treatment: 30 μM DPI in 3% DMSO, mean ± SE
From the text: (§1) For oxygen deprivation, plates were transferred to an airtight chamber designed to allow entry and exit of 99.998% argon under 0.4 μmols/s^1m^2 per μÅ of light.

[4] = test system: ropgap4-1 seedlings; settings: for Viable Seedlings 48 h after Treatment: ropgap4-1, 30 μM DPI in 3% DMSO, mean ± SE
From the text: as §1

[5] = test system: CA-rop2 seedlings; settings: for Viable Seedlings 48 h after Treatment: CA-rop2, 30 μM DPI in 3% DMSO, mean ± SE
From the text: as §1

[6] = test system: DN-rop2 seedlings; settings: for Viable Seedlings 48 h after Treatment: DN-rop2, 30 μM DPI in 3% DMSO, mean ± SE
From the text: as §1

[7] = test system: H2O2; settings: seedlings treated with caffeine and DPI for 24 h
Method: Caffeine (5 mM) was incorporated into the medium of plates to which seedlings were transferred. […] Control seedlings were treated with 3% (v/v) DMSO or transferred to plates not containing caffeine.
H2O2 levels were measured using a modification of the Terashima (1998) method (Terashima et al., Physiol. Plant. 103:295-303 (1998)). Tissue (0.5 g) was homogenized under liquid nitrogen, hydrated in 3 ml of 5% (w/v) metaphosphoric acid and centrifuged at 1,500×g at 4° C. for 20 min. The pH of the supernatant was adjusted to pH 7 with 1M Tricine, 6M NaOH. H2O2 levels were measured in a 500-μl reaction containing 200 mM MOPS-KOH (pH 7.8), 50 mM NADH in 10 mM potassium phosphate (pH 7.8). Absorbance at 340 nm was measured, 0.5 U of Streptococcusfaecalis NADH peroxidase (Sigma) was added, the sample was incubated for 1 h and absorbance at 340 nm was re-measured. H2O2 levels were determined from the decrease in absorbance in 60 min using a standard curve generated from similarly processed H2O2 standards.

Cn1c(=O)c2c(ncn2C)n(C)c1=O [Caffeine]
effect on GUS activity ([1]; caffeine): rose | caffeine promoted increase in ADH specific activity ([2]; CA-rop2 seedlings): limited | induction of ADH specific activity ([2]; all four genotypes, non-stress conditions, caffeine 5 mM, 24 h): significantly higher levels than the maximal level observed in response to low oxygen | caffeine promoted increase in ADH specific activity ([2]; ropgap4-1 seedlings): dramatic

c1ccc2c(c1)[I+]c1ccccc1-2 [DPI, diphenylene iodonium chloride]
effect on rise of GUS activity in response to low oxygen and caffeine ([1]; DPI): blocked | Viable Seedlings 48 h after Treatment ([3]; 0 h oxygen deprivation): 100 Percentage | Viable Seedlings 48 h after Treatment ([3]; 6 h oxygen deprivation): 80 ± 5 Percentage | Viable Seedlings 48 h after Treatment ([3]; 12 h oxygen deprivation): 0 Percentage | Viable Seedlings 48 h after Treatment ([3]; 24 h oxygen deprivation): 0 Percentage | duration of stress that WT seedlings survived ([3]; oxygen deprivation with DPI (over 36 h without DPI)): less than 12 h | Viable Seedlings 48 h after Treatment ([4]; 0 h oxygen deprivation): 100 Percentage | Viable Seedlings 48 h after Treatment ([4]; 6 h oxygen deprivation): 100 Percentage | Viable Seedlings 48 h after Treatment ([4]; 12 h oxygen deprivation): 50 ± 5 Percentage | Viable Seedlings 48 h after Treatment ([4]; 24 h oxygen deprivation): 0 Percentage | effect on survival of O2 deprivation ([4]; ropgap4-1 seedlings, DPI treatment): increased survival of O2 deprivation | Viable Seedlings 48 h after Treatment ([5]; 0 h oxygen deprivation): 100 Percentage | Viable Seedlings 48 h after Treatment ([5]; 6 h oxygen deprivation): 100 Percentage | Viable Seedlings 48 h after Treatment ([5]; 12 h oxygen deprivation): 100 Percentage | Viable Seedlings 48 h after Treatment ([5]; 24 h oxygen deprivation): 0 Percentage | effect on survival of oxygen deprivation ([5]; CA-rop2 seedlings, in the presence of DPI): improved | Viable Seedlings 48 h after Treatment ([6]; 0 h oxygen deprivation): 90 ± 3 Percentage | Viable Seedlings 48 h after Treatment ([6]; 6 h oxygen deprivation): 70 ± 4 Percentage | Viable Seedlings 48 h after Treatment ([6]; 12 h oxygen deprivation): 0 Percentage | Viable Seedlings 48 h after Treatment ([6]; 24 h oxygen deprivation): 0 Percentage | effect on survival of oxygen deprivation ([6]; DN-rop2 seedlings, in the presence of DPI): impaired | effect on caffeine-stimulated increase in H2O2 [7]: effectively blocked | effect on ADH activity ([2]; all four genotypes, control and low oxygen conditions, 30 μM DPI): reduced ADH activity | effect on ADH induction ([2]; ropgap4-1 seedlings, oxygen deprivation, DPI treatment): reduced ADH induction | effect on caffeine-stimulated increase in ADH specific activity ([2]; seedlings treated with caffeine and DPI for 24 h): effectively blocked
